{"source": "patent US11478476B2", "about": "(CONTERA PHARMA APS, priority 2014, dated 2022)", "key": {"[1]": {"molecular_target": "T1, serotonin 5-HT1A receptor (Rattus norvegicus, UniProt P19327)", "T1 construct": "host or cells: rat brain in vivo (dorsal raphe, hippocampus)", "T1 sequence (P19327 1-422)": "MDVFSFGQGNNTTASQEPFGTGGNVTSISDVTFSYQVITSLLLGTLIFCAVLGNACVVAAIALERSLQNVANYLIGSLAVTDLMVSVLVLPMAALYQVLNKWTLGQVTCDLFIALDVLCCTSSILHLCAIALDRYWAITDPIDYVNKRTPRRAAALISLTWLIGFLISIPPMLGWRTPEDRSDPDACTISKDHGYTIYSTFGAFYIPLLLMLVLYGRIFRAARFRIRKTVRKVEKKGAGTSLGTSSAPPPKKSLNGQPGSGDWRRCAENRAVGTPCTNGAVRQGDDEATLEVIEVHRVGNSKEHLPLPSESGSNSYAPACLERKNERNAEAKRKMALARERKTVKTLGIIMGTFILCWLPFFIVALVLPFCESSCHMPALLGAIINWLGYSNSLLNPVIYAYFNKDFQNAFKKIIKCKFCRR", "settings": "rats, intravenous infusions to steady-state plasma levels, cited from earlier work"}, "[2]": {"tested_on": "L-DOPA induced dyskinesia (LID) model rats", "assay": "L-DOPA induced AIMs in 6-OHDA lesioned LID model rats", "type": "in vivo, rat", "source_text": "Animals: 80 experimentally-naïve, male, 9 weeks old Sprague-Dawley rats at body weight of 200 to 250 g arrive at the laboratory at least 1 week prior to behavioural testing. Rats were housed in groups of n=2/cage. Animals had ad libitum access to standard rodent chow and water. Animal housing and testing rooms were maintained under controlled environmental conditions and were within close proximity of each other. Animal housing rooms were on a 12-hour light-dark cycle with lights on at 6:00 AM and maintained at 70° F./21° C. (range: 68-72° F./20-22° C.) with a humidity range of 20-40%. Testing rooms were maintained at 68-72° F. with a humidity range of 20-40%. DA (dopamine)-denervating lesions were performed by unilateral injection of 6-OHDA in the ascending nigrostriatal pathway. Rats were anesthetized with pentobarbital sodium 40 mg/kg (i.p.) and positioned in a stereotactic frame. 6-OHDA was injected into the right ascending DA bundle at the following coordinates relative to bregma and dural surface: A (anterior-posterior), L (lateral), V (dorsoventral): A −1.8, L −2.0, V −8.6, tooth bar 0.0.\nThe neurotoxin injections were performed at a rate of 1 ul/min, and the injection cannula is left in place for an additional 2-3 min thereafter. Two weeks after surgery, contralateral full body turns were recorded over 30 min, following s.c. injection of 0.5 mg/kg of apomorphine sulfate. The animals were placed in plastic Perspex bowls (30 cm in diameter) and the rotational behavior (360° turns) is recorded by an automated rotometer for […] after the s.c. injection of 0.5 mg/kg of apomorphine sulfate. Apomorphine (0.5 mg/kg, s.c.) induced contralateral rotation in unilateral 6-OHDA lesioned rats. 73 rats with rotations ≥180/30 min, indicating >90% DA lesion in nigrostriatal pathway, were chosen as the PD model rats for chronic L-DOPA treatment.\nStarting one day after the apomorphine-induced rotation test, 6-OHDA-lesioned rats were treated with daily L-DOPA (Sigma-Aldrich, Germany) (8 mg/kg plus benserazide 15 mg/kg, s.c.) for 21 days. Rats were placed individually in transparent plastic cages without bedding material and scored every 20 min following the injection of L-DOPA for the entire time course of dyskinesias (120 min). The AIMs were classified into four subtypes according to their topographic distributions such as Locomotive, Forelimb, Axial and Orolingual behaviors. The severity of each AIM subtype was assessed by using scores from 0 to 4 (1: occasional, i.e. present less than 50% of the time; 2: frequent, i.e. present more than 50% of the time; 3: continuous, but interrupted by strong sensory stimuli; 4: continuous, not interrupted by strong sensory stimuli). In this study, rats with an AIMs≥28 were considered highly dyskinetic, while rats with an AIMs<28 either low or none-dyskinetic.\nAfter chronic L-DOPA treatment on PD rats for 21 days, 42 LID model rats (348 g˜501 g, 15 weeks old) were successfully created with the criteria of total AIM scores (Lo+Li+AX+OI)≥28 points.\nAIMs ratings were performed by an investigator who was kept unaware of the pharmacological treatment administered to each rat (experimentally blinded). In order to quantify the severity of the AIMs, rats were observed individually in their standard cages every 20th minute at 20-180 min after an injection of I-DOPA. The AIM's were classified into four subtypes:\nEach of the four subtypes are scored on a severity scale from 0 to 4, where 0=absent, 1=present during less than half of the observation time, 2=present for more than half of the observation time, 3=present all the time but suppressible by external stimuli, and 4=present all the time and not suppressible by external stimuli. Axial, limb and orolingual AIMs are found to be modulated in a similar way by all the tested substances.\nRats were tested for AIMs using the sum of locomotive (LO) oraxial (AX), limb (LI), and orolingual (OL) AIM scores per testing session for statistical analyses. […]"}}, "note": "Like-named read-outs stand apart in the source and are kept apart here."}
{"smiles": "O=C1CC2(CCCC2)C(O)C(=O)N1CCCCN1CCN(c2ncccn2)CC1", "note": "(racemic) [6-OH-Busp]", "values": [{"measurement": "EC50", "setting": "[1]; dorsal raphe (presynaptic), read-out: 5-HT1A receptor occupancy EC50, dorsal raphe", "value": "1000 ± 300", "unit": "nM"}, {"measurement": "EC50", "setting": "[1]; hippocampus (postsynaptic), read-out: 5-HT1A receptor occupancy EC50, hippocampus", "value": "4000 ± 600", "unit": "nM"}, {"measurement": "total AIMs sum", "setting": "[2]; Example XII, 0.3, 1 and 3 mg/kg s.c.", "value": "dose-dependently decreased"}, {"measurement": "AIMs of LID rats at time points", "setting": "[2]; Example XII, 0.3, 1 and 3 mg/kg s.c., 30 to 190 min after L-DOPA injection", "value": "dose-dependently decreased"}, {"measurement": "AUC of total AIMs from 10 min to 190 min", "setting": "[2]; Example XII, buspirone 1 mg/kg s.c., 6-OH-Busp 0.3, 1 and 3 mg/kg s.c., vs vehicle", "value": "dose-dependently decreased"}, {"measurement": "AIMs of LID rats at time points", "setting": "[2]; Example XIII, 1 mg/kg s.c., 50 min and 70 min after L-DOPA injection", "value": "did not significantly decrease"}, {"measurement": "AIMs of LID rats at time points", "setting": "[2]; Example XIII, 3 mg/kg s.c., 50 to 190 min", "value": "significantly decreased"}, {"measurement": "AIMs of LID rats at time points", "setting": "[2]; Example XIV, 1 mg/kg s.c. alone, 90 min and 110 min after L-DOPA injection", "value": "did not have significant effects"}]}
